Measurements reported in patent US12559504B2, “Benzotriazole derivative” (UBE CORPORATION, priority 2019, dated 2026).

What was measured:
[1] = molecular target: T1, GST fusion human Keap1 (amino acid residue: 325-624) protein (Homo sapiens, UniProt Q14145); assay: Keap1-Nrf2 binding inhibition test (fluorescence polarization); details: compound concentration of 100 nM; read-out: inhibition rate
T1 construct: GST fusion human Keap1 (amino acid residue: 325-624) protein; purchased Protein tech Ag0779
Outline: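 Fluorescence polarization with FITC-labelled Nrf2 peptide (FITC-Ahx-LDEETGEFL-NH2) and GST-human Keap1 (325-624) in 20 mM Tris pH 7.5, 150 mM NaCl, 0.05% Tween 20, 5 mM DTT, BSA; 30 min at room temperature, ex 482/em 530 nm. Percent inhibition at 100 nM compound, Keap1-free wells = 100%.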

NQO1 [2] = assay: NQO1 enzyme induction test (in vitro) in Hepa1c1c7 cells; assay type: cell-based; details: Mus musculus, Hepa-1c1c7, 48 h, concentration to elevate the NQO1 activity by 1.5 times, about 48 hours, read-out: EC150
Method: Each NQO1 assay was carried out by modifying a known method (Anal Biochem 1998; 169: 328-, Methods Enzymol 2004; 382: 243-). Hepa1c1c7 cells (mouse hepatocyte line manufacture by DS Pharma Biomedical Co., Ltd., REF. No. 95090613) were cultured (5% CO2, 37° C.). The cells were cultured in MEMα (manufactured by FUJIFILM Wako Pure Chemical Corporation, REF. 135-15175) medium comprising 10% FBS (manufactured by GIBCO, REF. 10082) and […]/streptomycin/amphotericin B (manufactured by GIBCO, REF. 15240), and dispensed into a 96 well plate (manufactured by Costar, REF. 3610) at 2.0×10^3 cells/well. On the next day, test compound (final concentration of […]: 0.1%) dissolved into DMSO (manufactured by FUJIFILM Wako Pure Chemical Corporation, REF. 043-07216) was added to each well, and the plate was further cultured for about 48 hours.
A cell lysate manufactured by Cell signaling Technology, Inc. (REF. 9803) with the addition of a Protease Inhibitor manufactured by Roche Diagnostics K.K. (REF. 11-873580001) was used. A reaction solution (which is a solution comprising trishydrochloric acid (25 mM), albumin […], Tween-20 (0.01%), glucose-6-phosphate dehydrogenase (2 U/mL), flavin-adenine dinucleotide (5 μM), glucose-6-phosphate (1 μM), nicotinamide adenine dinucleotide phosphate (30 μM), 3-(4,5-dimethyl-2-thiazolyl)-2,5-diphenyltetrazolium bromide (MTT) (0.03%), and menadione (50 μM)), and a stop solution (which is a solution comprising dicumarol (0.3 mM) and potassium dihydrogen phosphate (5 mM), pH 7.4) were prepared. After the medium was removed, cell lysate (50 μL) was added thereto, and the resulting mixture was shaken at room temperature for 20 minutes. The reaction solution (200 μL) was added thereto, and the resulting mixture was left to stand at room temperature for 5 minutes. The stop solution (50 μL) was added thereto, and absorbance at 540 nm (reference 750 nm) was measured.
Cell number was measured by Cell Titer Glo assay (manufactured by Promega Corporation, REF. G9242) by using another plate prepared according to the same conditions as those described above, and correction of absorbance was carried out. The test result was analyzed by Excel, and the EC150 value which is the concentration to elevate the NQO1 activity by 1.5 times was calculated.

NQO1 [3] = assay: NQO1 expression induction test in mouse kidney (single administration); assay type: in vivo; details: Mus musculus, po, 6 h, BALB/c mouse kidney, 6 hours after administration, ratio to control group
Outline: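 Female BALB/c mice received a single oral dose of compound in 0.5% methylcellulose, with untreated mice as controls. Six hours later, left-kidney NQO1 mRNA was measured by SYBR real-time RT-PCR normalised to GAPDH. Induction was expressed as the ratio of mean treated to mean control expression.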

[4] = Metabolism test using human liver microsome fractions; assay type: in vitro ADME; details: human liver microsomes, test compound 10 μmol/L, NADPH and UDP-glucuronic acid, 37° C.
Outline: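 Human or monkey liver microsomes (1 mg protein) with NADPH-regenerating system plus UDP-glucuronic acid/UGT mix, 37 °C; compound at 10 μmol/L final. Samples at 0–30 min quenched in acetonitrile, UV-HPLC; elimination rate (pmol/min/mg-P) from linear slope of residual amount over time.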

T1 sequence (Q14145 325-624): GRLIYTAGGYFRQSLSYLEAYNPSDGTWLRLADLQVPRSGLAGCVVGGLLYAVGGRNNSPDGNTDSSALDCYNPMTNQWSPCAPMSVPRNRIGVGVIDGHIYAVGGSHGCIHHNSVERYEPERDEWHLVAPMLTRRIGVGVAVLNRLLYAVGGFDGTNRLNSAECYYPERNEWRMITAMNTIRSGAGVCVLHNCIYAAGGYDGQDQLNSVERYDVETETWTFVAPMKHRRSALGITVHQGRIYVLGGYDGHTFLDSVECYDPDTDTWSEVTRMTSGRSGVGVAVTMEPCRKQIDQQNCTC

| inhibition at 0.1 µM [1] [%] | Compound | EC (1.5-fold NQO1 activity) (NQO1 [2]) [µM] | fold induction at 10 mg/kg (NQO1 [3]; Dose 10 mg/kg) | Human metabolic rate [4] | fold induction at 30 mg/kg (NQO1 [3]) | fold induction at 20 mg/kg (NQO1 [3]; Dose 20 mg/kg) |
| --- | --- | --- | --- | --- | --- | --- |
| ≥ 50 | CC[C@@H]1CN(Cc2cc(C(c3ccc4c(nnn4C)c3C)C(C)(C)C(=O)O)ccc2C)Cc2ccccc2O1 (single isomer, unassigned) [Example C1, reference compound] | 0.005 to 0.05 | ≤ 3 | C (150≤metabolic rate<200 pmol/min/mg protein) |  |  |
| ≥ 50 | CC[C@@H]1CN(Cc2cc(C(c3ccc4c(nnn4C)c3C)C(C)(C)C(=O)O)ccc2C)Cc2cc3c(cc2O1)OC(F)(F)O3 (stereo partly drawn) [Example 1-(b), 3-(1,4-dimethyl-1H-benzo[d][1,2,3]triazol-5-yl)-3-(3-(((R)-6-ethyl-2,2-difluoro-6,7-dihydro-[1,3]dioxolo[4′,5′:4,5]benzo[1,2-f][1,4]oxazepin-8(9H)-yl)methyl)-4-methylphenyl)-2,2-dimethylpropanoic Acid] | 0.0005 to 0.005 |  | C (150≤metabolic rate<200 pmol/min/mg protein) | 3 to 6 |  |
| ≥ 50 | CC[C@@H]1CN(Cc2cc(C(c3ccc4c(nnn4C)c3C)C(C)(C)C(=O)O)ccc2C)Cc2ccc3c(c2O1)OC(F)(F)O3 (stereo partly drawn) [Example 2-(b), 3-(1,4-dimethyl-1H-benzo[d][1,2,3]triazol-5-yl)-3-(3-(((R)-9-ethyl-2,2-difluoro-8,9-dihydro-[1,3]dioxolo[4′,5′:3,4]benzo[1,2-f][1,4]oxazepin-7(6H)-yl)methyl)-4-methylphenyl)-2,2-dimethylpropanoic Acid] | 0.0005 to 0.005 |  | A (metabolic rate<100 pmol/min/mg protein) | 3 to 6 |  |
| ≥ 50 | CC[C@@H]1CN(Cc2cc(C(c3ccc4c(nnn4C)c3C)C(C)(C)C(=O)O)ccc2C)Cc2cc3c(cc2O1)CCC3 (stereo partly drawn) [Example 3-(b), 3-(1,4-dimethyl-1H-benzo[d][1,2,3]triazol-5-yl)-3-(3-(((R)-2-ethyl-2,3,5,7,8,9-hexahydro-4H-indeno[5,6-f][1,4]oxazepin-4-yl)methyl)-4-methylphenyl)-2,2-dimethylpropanoic Acid] | 0.005 to 0.05 |  | C (150≤metabolic rate<200 pmol/min/mg protein) | > 6 |  |
| ≥ 50 | CC[C@@H]1CN(Cc2cc(C(c3ccc4c(nnn4C)c3C)C(C)(C)C(=O)O)ccc2C)Cc2cc3c(cc2O1)CCCC3 (stereo partly drawn) [Example 4-(b), 3-(1,4-dimethyl-1H-benzo[d][1,2,3]triazol-5-yl)-3-(3-(((R)-2-ethyl-2,3,7,8,9,10-hexahydronaphtho[2,3-f][1,4]oxazepin-4(5H)-yl)methyl)-4-methylphenyl)-2,2-dimethylpropanoic Acid] | 0.005 to 0.05 |  | B (100≤metabolic rate<150 pmol/min/mg protein) | > 6 |  |
| ≥ 50 | CC[C@@H]1CN(Cc2cc(C(c3ccc4c(nnn4C)c3C)C(C)(C)C(=O)O)ccc2C)Cc2ccc3ccncc3c2O1 (stereo partly drawn) [Example 62, 3-(1,4-dimethyl-1H-benzo[d][1,2,3]triazol-5-yl)-3-(3-(((R)-2-ethyl-2,3-dihydro-[1,4]oxazepino[6,7-h]isoquinolin-4 (5H)-yl)methyl)-4-methylphenyl)-2,2-dimethylpropanoic Acid] | 0.0005 to 0.005 |  |  | ≤ 3 |  |
| ≥ 50 | CC[C@@H]1CN(Cc2cc(C(c3ccc4c(nnn4C)c3C)C(C)(C)C(=O)O)ccc2C)Cc2cc(Cl)c3ccccc3c2O1 (stereo partly drawn) [Example 67-(b), 3-(3-(((R)-7-chloro-2-ethyl-2,3-dihydronaphtho[2,1-f][1,4]oxazepin-4 (5H)-yl)methyl)-4-methylphenyl)-3-(1,4-dimethyl-1H-benzo[d][1,2,3]triazol-5-yl)-2,2-dimethylpropanoic Acid] | 0.005 to 0.05 |  |  |  | ≤ 3 |
